Measurements published in paper PMC12021657, “Rapid traversal of vast chemical space using machine learning-guided docking screens” (Nature Computational Science, 2025).

Key:
[1] = molecular target: T1, Human D2R (Homo sapiens, UniProt P14416); test: Human D2R competition radioligand binding ([3H]-spiperone, CHO-D2R #S20 membranes); settings: 10 µM compound, mean ± SEM of two technical replicates; for inhibition at 10 µM: 2 h, read-out: D2R radioligand displacement at 10 µM (%)
T1 construct: expressed in transfected cells
Description: (§1) Screening compounds (Supplementary Tables 10 and 12) were purchased from Enamine (compound purity >90%, which was confirmed by liquid chromatography−mass spectrometry and ^1H NMR spectroscopy for identified ligands; Supplementary Figs. 19–30). Human D2R competition binding experiments were carried out in polypropylene 96-well plates. Each well contained 20 µg of membranes from a CHO-D2R #S20 cell line (protein concentration of 4,322 µg ml^−1), 1.5 nM [^3H]-spiperone (54.3 Ci mmol^−1, 1 mCi ml^−1, PerkinElmer NET1187250UC) and the compound studied. Non-specific binding was determined in the presence of 10 µM sulpiride (Sigma Aldrich S8010). The reaction mixture (250 µl per well) was incubated at 25 °C for 120 min, after which 200 µl was transferred to a GF/C 96-well plate (Millipore) pretreated with 0.5% PEI and treated with binding buffer (50 mM Tris-HCl, 1 mM EDTA, 5 mM MgCl2, 5 mM KCl, 120 mM NaCl, pH 7.4). The reaction mixture was filtered and washed 4 times with 250 µl wash buffer (50 mM Tris-HCl, 0.9% NaCl, pH 7.4) before the addition of 30 μl Universol. The final measurement was performed in a microplate beta scintillation counter (Microbeta Trilux, PerkinElmer). Human A2AR competition binding experiments were carried out in a multiscreen GF/C 96-well plate (Millipore) pretreated with binding buffer (Tris-HCl 50 mM, EDTA 1 mM, MgCl2 10 mM, 2 U ml^−1 adenosine deaminase, pH 7.4). Each well was incubated with 5 μg of membranes from the HeLa-A2A cell line and prepared in our laboratory (lot A003/14-04-2019, protein concentration 2,058 μg ml^−1), 1 nM [^3H]-ZM241385 (50 Ci mmol^−1, 1 mCi ml^−1, ARC-ITISA 0884), and the compounds studied and standards. Non-specific binding was determined in the presence of NECA 50 μM (Sigma E2387). The reaction mixture (total volume of 200 μl per well) was incubated at 25 °C for 30 min, then filtered and washed 4 times with 250 μl wash buffer (Tris-HCl 50 mM, EDTA 1 mM, MgCl2 10 mM, pH 7.4), and measured in a microplate beta scintillation counter (Microbeta Trilux, PerkinElmer). Unless stated otherwise, three independent experiments were carried out to calculate Ki values.

[2] = molecular target: T2, Human A2AR (Homo sapiens, UniProt P29274); test: Human A2AR competition radioligand binding ([3H]-ZM241385, HeLa-A2A membranes); settings: 20 µM compound, mean ± SEM of two technical replicates
T2 construct: expressed in transfected cells; host or cells: HeLa-A2A cell line (membranes prepared in house, lot A003/14-04-2019)
Description: as §1

T1 sequence (P14416 whole entry): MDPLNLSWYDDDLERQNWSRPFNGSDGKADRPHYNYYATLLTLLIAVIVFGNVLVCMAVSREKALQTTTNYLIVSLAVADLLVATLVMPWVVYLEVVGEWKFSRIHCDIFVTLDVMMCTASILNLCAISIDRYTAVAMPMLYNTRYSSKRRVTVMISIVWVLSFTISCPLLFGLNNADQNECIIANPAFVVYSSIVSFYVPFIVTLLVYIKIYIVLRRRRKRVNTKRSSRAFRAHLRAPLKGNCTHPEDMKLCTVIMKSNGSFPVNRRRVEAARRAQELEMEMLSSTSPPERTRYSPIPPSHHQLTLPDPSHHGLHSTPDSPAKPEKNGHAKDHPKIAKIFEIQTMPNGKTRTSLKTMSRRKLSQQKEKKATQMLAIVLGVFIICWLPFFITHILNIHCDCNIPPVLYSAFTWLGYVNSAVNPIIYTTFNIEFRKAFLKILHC
T2 sequence (P29274 whole entry): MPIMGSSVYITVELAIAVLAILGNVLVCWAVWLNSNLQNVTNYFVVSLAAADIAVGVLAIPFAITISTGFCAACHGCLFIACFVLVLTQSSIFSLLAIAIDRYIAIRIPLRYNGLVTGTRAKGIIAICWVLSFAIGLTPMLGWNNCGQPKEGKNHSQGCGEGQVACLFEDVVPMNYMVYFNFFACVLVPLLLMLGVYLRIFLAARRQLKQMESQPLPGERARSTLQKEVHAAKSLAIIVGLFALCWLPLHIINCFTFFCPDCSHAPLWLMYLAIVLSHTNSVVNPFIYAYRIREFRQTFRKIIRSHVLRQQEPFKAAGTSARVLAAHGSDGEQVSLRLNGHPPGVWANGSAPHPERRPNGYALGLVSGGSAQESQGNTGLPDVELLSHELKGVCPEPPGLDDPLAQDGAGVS

Row | Compound | D2R radioligand displacement at 10 µM (%) [1] | inhibition at 10 µM [1] | A2AR radioligand displacement at 20 µM (%) [2]
1 | c1ccc(C2CC(NCc3cc4ncccc4[nH]3)C2)cc1 (stereo not drawn) [Z3532611366, c1ccc(cc1)C2CC(C2)NCc3cc4c([nH]3)cccn4] | 24 ± 1% | 24 ± 1% | 
2 | NC(=NCc1nc(-c2ccccc2)n[nH]1)Nc1ccccn1 [Z2518713795, c1ccc(cc1)c2nc([nH]n2)CN=C(N)Nc3ccccn3] |  |  | 23±3%
3 | O=C(NCc1nccc(=O)[nH]1)C1CCCN1Cc1ccccc1 (stereo not drawn) [Z4219981720, c1ccc(cc1)CN2CCCC2C(=O)NCc3[nH]c(=O)ccn3] |  |  | 6±4%
4 | NC(=NCCc1ccc(F)cc1F)Nc1ncccn1 [Z8854579368, c1cnc(nc1)NC(=NCCc2ccc(cc2F)F)N] |  |  | 14±1%
5 | O=c1[nH]c(NCC2CCN(CCc3ccccc3)C2)nc2ccsc12 (stereo not drawn) [Z5332306614, c1ccc(cc1)CCN2CCC(C2)CNc3[nH]c(=O)c4c(n3)ccs4] |  |  | 8±1%
6 | c1ccc(C2CN=C(NCCc3cn4c(n3)CCCC4)N2)cc1 (stereo not drawn) [Z8185092671, c1ccc(cc1)C2CN=C(N2)NCCc3cn4c(n3)CCCC4] | 5 ± 2% | 5 ± 2% | 
7 | FC(F)(F)c1ccnc(N2CCN(C3CCC3)CC2)c1 [Z1348398263, c1cnc(cc1C(F)(F)F)N2CCN(CC2)C3CCC3] | 5 ± 3% | 5 ± 3% | 
8 | c1ccc(CC2CN(Cc3cc4ncccc4s3)C2)cc1 [Z8185092667, c1ccc(cc1)CC2CN(C2)Cc3cc4c(s3)cccn4] | 12 ± 3% | 12 ± 3% | 
9 | c1ccc(NC2CCN(Cc3cccc4ncnn34)C2)cc1 (stereo not drawn) [Z3310096494, c1ccc(cc1)NC2CCN(C2)Cc3cccc4n3ncn4] | 1 ± 2% | 1 ± 2% | 
10 | Fc1ccc([C@H]2C[C@H](NCc3cnn(-c4ccccc4)n3)C2)cc1 [Z2213086620, c1ccc(cc1)n2nc(cn2)CN[C@H]3C[C@@H](C3)c4ccc(cc4)F] | 27 ± 1% | 27 ± 1% | 
11 | Brc1ccn2c(CN[C@H]3C[C@H](Oc4ccccc4)C3)cnc2c1 [Z8185092056, c1ccc(cc1)O[C@H]2C[C@@H](C2)NCc3n4c(nc3)cc(cc4)Br] | 2 ± 2% | 2 ± 2% | 
12 | Cc1ccc(CCN2C[C@@H]3CN(C(=O)c4cn5c(n4)CC(C)CC5)C[C@@H]3C2)cc1 (stereo partly drawn) [Z8185092530, Cc1ccc(cc1)CCN2C[C@@H]3CN(C[C@@H]3C2)C(=O)c4cn5c(n4)CC(CC5)C] | 1 ± 2% | 1 ± 2% | 
13 | Cc1cccc(CN[C@H]2C[C@H](Oc3ccccc3)C2)c1F [Z8185092308, Cc1c(c(ccc1)CN[C@H]2C[C@@H](C2)Oc3ccccc3)F] | 6 ± 2% | 6 ± 2% | 
14 | Cc1ccccc1-n1cc(CNC2COc3ccccc3C2)cn1 (stereo not drawn) [Z8185092078, Cc1ccccc1n2cc(cn2)CNC3Cc4ccccc4OC3] | 3 ± 1% | 3 ± 1% | 
15 | Cc1cc(CC(O)CN2CCc3c(ncn3C3CCC3)C2)ccc1F (stereo not drawn) [Z3516919089, Cc1cc(ccc1F)CC(CN2CCc3c(ncn3C4CCC4)C2)O] | 1 ± 1% | 1 ± 1% | 
16 | Clc1nc2c(cc1CN1CC[C@@H](Oc3ccccc3)C1)COCC2 [Z3529190238, c1ccc(cc1)O[C@@H]2CCN(C2)Cc3cc4c(nc3Cl)CCOC4] | 1 ± 1% | 1 ± 1% | 
17 | CC(C)(C)c1c[nH]c(CN2CCC(Cc3nccs3)C2)n1 (stereo not drawn) [Z8185092674, CC(C)(C)c1c[nH]c(n1)CN2CCC(C2)Cc3nccs3] | 2 ± 3% | 2 ± 3% | 
18 | c1ccc([C@H]2C[C@H](NCc3ccccc3-n3cccn3)C2)cc1 [Z1973963178, c1ccc(cc1)[C@H]2C[C@@H](C2)NCc3c(cccc3)n4nccc4] | 1 ± 2% | 1 ± 2% | 
19 | OC(CN1CCC(n2ncc3ccccc32)CC1)c1cccc(Cl)n1 (stereo not drawn) [Z3651347041, c1ccc2c(c1)cnn2C3CCN(CC3)CC(c4cccc(n4)Cl)O] | 28 ± 1% | 28 ± 1% | 
20 | Cc1ccc(C2CC(NCCn3ncc4ccccc43)C2)cc1 (stereo not drawn) [Z8185092514, Cc1ccc(cc1)C2CC(C2)NCCn3c4ccccc4cn3] | 23 ± 1% | 23 ± 1% | 

Second part, the molecule after the results:

Row | D2R radioligand displacement at 10 µM (%) [1] | inhibition at 10 µM [1] | A2AR radioligand displacement at 20 µM (%) [2] | Compound
21 |  |  | 2±3% | NC(=NCCOc1ccc(F)cc1F)Nc1ncccn1 [Z8854579369, c1cnc(nc1)NC(=NCCOc2ccc(cc2F)F)N]
22 |  |  | 19±1% | Cc1cc(NC(=O)c2cccn2CCN2CCOCC2)ns1 [Z3591989733, Cc1cc(ns1)NC(=O)c2cccn2CCN3CCOCC3]
23 | 5 ± 1% | 5 ± 1% |  | Cc1[nH]cnc1CN1CCC(Oc2cc(F)cc(F)c2)C1 (stereo not drawn) [Z3516846214, Cc1c(nc[nH]1)CN2CCC(C2)Oc3cc(cc(c3)F)F]
24 |  |  | 23±1% | NC(=NCCOc1cccc(C(F)(F)F)c1)Nc1ncccn1 [Z8854579346, c1cc(cc(c1)OCCN=C(N)Nc2ncccn2)C(F)(F)F]
25 | 17 ± 4% | 17 ± 4% |  | c1csc(CCN2CCC(Oc3ccc(C4CC4)cn3)C2)c1 (stereo not drawn) [Z2694200197, c1cc(sc1)CCN2CCC(C2)Oc3ccc(cn3)C4CC4]
26 | 4 ± 1% | 4 ± 1% |  | Clc1cccc(CCN2CC(c3ncnc4ccccc34)C2)c1 [Z3806926084, c1ccc2c(c1)c(ncn2)C3CN(C3)CCc4cccc(c4)Cl]
27 | 10 ± 3% | 10 ± 3% |  | OC(Cc1cccc(Cl)c1)CN1CCC=C(c2ccco2)C1 (stereo not drawn) [Z2102774071, c1cc(cc(c1)Cl)CC(CN2CCC=C(C2)c3ccco3)O]
28 | 24 ± 1% | 24 ± 1% |  | Clc1ccc(C2CN=C(NCc3cc(OC4CCC4)ccn3)N2)cc1 (stereo not drawn) [Z8185092666, c1cc(ccc1C2CN=C(N2)NCc3cc(ccn3)OC4CCC4)Cl]
29 | 4 ± 3% | 4 ± 3% |  | Cc1ccc(C(O)CN2CCC3(Cc4ccccc4C3)C2)c(C)c1 (stereo not drawn) [Z8185092353, Cc1ccc(c(c1)C)C(CN2CCC3(C2)Cc4ccccc4C3)O]
30 | 5 ± 3% | 5 ± 3% |  | Fc1ccc(O[C@H]2CCN(Cc3cnc4ccc(Br)cn34)C2)cc1 [Z8185092492, c1cc(ccc1O[C@H]2CCN(C2)Cc3cnc4n3cc(cc4)Br)F]
31 | 4 ± 1% | 4 ± 1% |  | Clc1cnn(CCN2CCC(OCc3ccc(Br)cc3)CC2)c1 [Z8185092665, c1cc(ccc1COC2CCN(CC2)CCn3cc(cn3)Cl)Br]
32 | 7 ± 1% | 7 ± 1% |  | Cn1cc(-c2ccc(CN3CC[C@@H](Oc4ccccc4)C3)s2)cn1 [Z2629646171, Cn1cc(cn1)c2ccc(s2)CN3CC[C@H](C3)Oc4ccccc4]
33 | 3 ± 1% | 3 ± 1% |  | O[C@@H](CN1CCc2cc(Br)sc2C1)c1ccccc1F [Z8185092668, c1ccc(c(c1)[C@H](CN2CCc3cc(sc3C2)Br)O)F]
34 | 1 ± 1% | 1 ± 1% |  | c1cnc(CCN2CCC(c3cn[nH]c3)CC2)cn1 [Z2833584438, c1cnc(cn1)CCN2CCC(CC2)c3c[nH]nc3]
35 | 2 ± 1% | 2 ± 1% |  | Fc1cccc2nc(CNCc3ccccc3-n3cccn3)sc12 [Z8185092672, c1ccc(c(c1)CNCc2nc3cccc(c3s2)F)n4cccn4]
